{"source": "patent US20250346643A1", "about": "“TROPOMYOSIN KINASE RECEPTOR (TRK) LIGANDS AS THERAPEUTICS TO SUPPORT LIVER REGENERATION” (Vanderbilt University, priority 2024, published 2025)", "key": {"[1]": {"system": "hepatocytic differentiated human ductal organoids", "assay": "EdU incorporation in hepatocytic differentiated human ductal organoids (HDO)", "format": "cell-based", "conditions": "co-incubation with taletrectinib 10 nM (FIG. 19C-D)", "procedure": "(§1) Human ductal organoids. The normal human liver tissue was obtained through the Cooperative Human Tissue Network (CHTN) at Vanderbilt University Medical Center. The liver was cut into very small pieces in liver digestion medium (Gibco, Waltham, MA; 17703-034). The cell suspension was filtered through a 100-μm cell strainer. The flow through was then centrifuged for 2 min at 100 g, 4° C., and the cell pellet resuspended in ice-cold DMEM (Gibco, Waltham, MA; 11885-084, supplemented by 5% FBS) and centrifuged for 2 min at 300 g. The cell pellet was gently resuspended in Matrigel® (Corning, Corning, NY; 356231) and a […] dome plated in a 24-well plate. The plate was incubated for 10-15 min at 37° C. After solidifying, complete HepatiCult™ Organoid Initiation Medium (OIM) (STEMCELL Technologies, Vancouver, Canada; 100-0384) was added. For passaging, the Matrigel dome was dissociated using TrypLE (Thermo Fisher Scientific, Waltham, MA; 12604013) and incubated at 37° C. for 5 mins. Organoids were washed by resuspending in advanced DMEM/F12 and consecutive resuspension of the organoid pellet. Organoids were resuspended at a 1:10 dilution in Matrigel® and cultured in complete HepatiCult™ Organoid Growth Medium (OGM) (STEMCELL Technologies, Vancouver, Canada; 100-0385) for organoid expansion. For hepatocytic differentiation of hepatic ductal organoids, culture medium was changed to complete HepatiCult™ Organoid Differentiation Medium (ODM) (STEMCELL Technologies, 100-0383) 4 days after passaging. Vehicle, NTF3, BDNF, HGF (20 ng/ml final concentration) or Taletrectinib (Fisher Scientific, Waltham, MA; 502030245, final concentration 10 nM) or torin2 (Fisher Scientific, Waltham, MA; s2817, final concentration 25 nM) were diluted in William's E (without L-glutamine) and added to organoids.\nEdU incorporation and imaging in HDO and mpPHH. A chamber slide was pre-chilled on ice and coated with Matrigel®. Chamber slide was then incubated for 3 min at 37° C. to solidify and organoids plated in 0.02% Matrigel®/complete media into coated chamber slides. Organoids were grown in complete organoid growth media (OGM) for approximately 4 days followed by incubation in organoid differentiation media (ODM) for another 4 days. Organoids were changed to William's E medium 1 day prior to experiment. Vehicle or NTF3, BDNF, HGF (20 ng/ml final concentration each) or Taletrectinib (Fisher Scientific, Waltham, MA; 502030245, final concentration 10 nM) were diluted in William's E (without L-glutamine) and added to organoids. CLICK-iT™ EdU (EdU final concentration […] incubated together with the vehicle, NTF3, BDNF or HGF). After 6 hours, organoids were fixed with 4% paraformaldehyde and permeabilized with 0.5% Triton-X 100. Further processing was performed according to CLICK-ITT EdU manufacturer's instructions. mpPHHs were seeded on collagen coated chamber slides and grown in complete hepatocyte medium (Lonza, Basel, Switzerland). Prior to EdU incorporation assays, mpPHHs were cultured in William's E medium. Vehicle or NTF3, BDNF, HGF (20 ng/ml final concentration each) or Taletrectinib (Fisher Scientific, Waltham, MA; 502030245, final concentration 10 nM) were diluted in William's E (without L-glutamine) and added to mpPHHs. Organoids were imaged in PBS in chamber slides, mpHHs were mounted with fluoromount. Five to fifteen images of random high-power fields were obtained per experiment per treatment and EdU+/Hoechst 33342+ nuclei versus all Hoechst 33342+ nuclei quantified."}, "mTORC1": {"system": "mTORC1", "assay": "Immunoblotting of HDOs for P-S6RP and P-P70S6K (mTORC1 activation)", "format": "cell-based, human", "procedure": "as §1\nImmunoblotting. HDOs and mpPHH were homogenized in RIPA buffer containing proteinase inhibitors (Roche, Basel, Switzerland; cOmplete™ Mini protease inhibitor, 2 tab/10 ml buffer) and 1×HALT phosphatase inhibitors (Thermo Fisher Scientific, Waltham, MA; catalog no. 78428). Lysates were sonicated and then centrifuged for 10 min at 18,800 g. Protein concentration of supernatants was determined by Direct Detect Spectrophotometer (MilliporeSigma, Burlington, MA). HDOs were treated with growth factors as described above. Lyophilized NTF3 was solubilized with sterile-filtered PBS supplemented with 0.1% BSA, aliquoted, and stored at −80° C. until use. […] HDOs and mpPHH were collected on ice in PBS and centrifuged for 10 s, and the cell pellet was homogenized in RIPA buffer containing inhibitors (Roche, Basel, Switzerland; cOmplete™ Mini protease inhibitor, 1×HALT phosphatase inhibitors, Thermo Fisher Scientific, Waltham, MA; catalog no. 78428). Cell lysates were sonicated and centrifuged for 10 min at 18,800 g. The protein concentration of supernatants was determined by a Direct Detect® spectrophotometer (MilliporeSigma, Burlington, MA). For immunoblot analysis, 10 to 50 μg of protein diluted in […] sample buffer (Invitrogen, Waltham, MA) were analyzed per SDS-polyacrylamide gel electrophoresis (NuPAGE™, Invitrogen, Waltham, MA) using Mops buffer or MES buffer (Invitrogen, Waltham, MA). […] Semi-quantitative band densitometry was performed using ImageJ software (version 1.53)."}, "[2]": {"system": "primary mouse hepatocytes", "assay": "Cell proliferation assay (CellTiter-Glo) in primary mouse hepatocytes", "format": "cell-based", "procedure": "Primary hepatocyte isolation. Pdgfrb-GFP-negative or H-2Kd mice older than 4 months were anesthetized and cannulated via the portal vein. Livers were perfused with about 25 ml of pre-warmed Liver Perfusion Medium (Gibco, Waltham, MA; 17707-038) followed by about 50 ml Liver Digestion Medium (Gibco, Waltham, MA; 17703-034). Liver capsule was gently teased apart with tweezers and hepatocytes released. Cells were taken up in Hepatocyte Wash Buffer (Gibco, Waltham, MA; 17704-024) and filtered through 100 μm mesh. Cells were then centrifuged for 2 min at 100 g, 4° C. and cell pellet resuspended in ice cold 10 ml DMEM (Gibco, Waltham, MA; 11885-084)/5% FBS. 10 ml of ice cold 100% Percoll®/PBS (GE HealthCare, Chicago, IL; GE17-0891-01) was added for gradient purification and cells centrifuged for 10 min at 200 g, 4° C. Cell pellet was resuspended with 20 ml DMEM/5% FBS and centrifuged for 2 min at 100 g, 4° C. 1-2×10^3 hepatocytes were plated on collagen-coated 96-well plates in DMEM/5% FBS/Pen/Strep. Rat tail collagen I (Gibco, Waltham, MA; A1048301) was used for coating. Cell culture media was changed 3 hours after plating with either serum-free William's E media (Gibco, Waltham, MA) containing Pen/Strep (Gibco, Waltham, MA) or DMEM/5% FBS/Pen/Strep. NTF3 (STEMCELL technologies, Vancouver, Canada) was added 1 day after plating at a final concentration of 20 ng/ml and primary hepatocytes cultured for 3 days with NTF3 until analysis.\nCell proliferation assays. Primary mouse hepatocytes, HepG2 or AML 12 cells were grown in opaque-walled 96-well plates. NTF3 (final concentration 20 ng/ml) (STEMCELL Technologies, Vancouver, Canada; cat. 78074) and/or Loxo-195 (final concentration 5 nM) (Selleckchem, Houston, TX; S8636) were added into complete growth media without L-glutamine. Primary mouse hepatocytes were also grown in serum-free William's E media without supplements. Cells were analyzed by CellTiter-Glo® (Promega G7570, Madison, WI) which detects the number of viable cells on day 0 to day 5 by on detection systems GloMax® (Promega) or Bioteck Synergy H1 (Agilent, Santa Clara, CA). Mouse recombinant HGF (Abcam, Cambridge, UK; ab281797) was added to cell culture media at a final concentration 5 ng/ml. TRKB inhibitor ANA-12 (Selleckchem, Houston, TX; S7745) was diluted in DMSO (10 mM stock solution) and added to cell culture media at a final concentration of 10 nM.\nPrimary mouse hepatocyte isolation. Mice were anesthetized and cannulated via the portal vein. Livers were perfused with ˜25 ml of prewarmed liver perfusion medium (Gibco, Waltham, MA; 17707-038) followed by ˜50 ml of liver digestion medium (Gibco, Waltham, MA; 17703-034). The liver capsule was gently teased apart with tweezers, and hepatocytes were released. Cells were taken up in Hepatocyte Wash Buffer (Gibco, Waltham, MA; 17704-024) and filtered through a 100-μm mesh. Cells were then centrifuged for 2 min at 100 g, 4° C., and the cell pellet was resuspended in 10 ml of ice-cold DMEM (Gibco, Waltham, MA; 11885-084)/5% FBS. […] of ice-cold 100% Percoll®/PBS (GE HealthCare, Chicago, IL; GE17-0891-01) were added for gradient purification, and cells were centrifuged for 10 min at 200 g, 4° C. The cell pellet was resuspended with 20 ml of DMEM/5% FBS and centrifuged for 2 min at 100 g, 4° C. A total of 1×10^3 to 2×10^3 hepatocytes were plated on collagen-coated 96-well plates in DMEM/5% FBS/Pen/Strep. Rat tail collagen I (Gibco, Waltham, MA; A1048301) was used for coating. Cell culture media were changed 3 hours after plating with either serum-free William's E media (Gibco, Waltham, MA) containing Pen/Strep (Gibco, Waltham, MA) or DMEM/5% FBS/Pen/Strep. […]"}}, "data": [{"compound": "C[C@@H](N)COc1ccc(-c2cnc3ccc(N[C@H](C)c4cccc(F)c4)nn23)cc1", "note": "[taletrectinib, reference compound]", "values": [{"measurement": "effect on NTF3-induced increase of EdU+ cells", "setting": "[1]", "result": "decreased"}]}, {"compound": "NC(=O)CC[C@H](N)C(=O)O", "note": "[glutamine]", "values": [{"measurement": "phosphorylated S6rp (Ser240/244)", "setting": "mTORC1; HDOs cultured in glutamine free media, coincubation (FIG. 18G), Torin2 25 nM", "result": "decreased phosphorylated S6rp"}]}, {"compound": "CC(=O)NCCc1c[nH]c2ccc(O)cc12", "note": "[NAS, N-Acetyl-5-hydroxytryptamine, reference compound]", "values": [{"measurement": "cell proliferation, comparison of NTF3, HGF, BDNF and NAS", "setting": "[2]; BDNF and HGF 20 ng/ml, NAS 500 nM (FIG. 16E)", "result": "induce proliferation to a similar extent"}]}, {"compound": "insulin: a known activator of mTORC1", "values": [{"measurement": "phosphorylation of P-p70S6 kinase and P-S6 ribosomal protein (S6RP)", "setting": "mTORC1; HDO, serum free and glutamine free William's E medium (FIG. 20A-C)", "result": "significantly increased phosphorylation"}]}, {"compound": "O=C(Nc1ccccc1C(=O)NC1CCCCNC1=O)c1cc2ccccc2s1", "note": "(stereo not drawn) [ANA-12, reference compound]", "values": [{"measurement": "inhibition of NTF3-induced cell proliferation", "setting": "[2]; ANA-12 10 nM, NTF3 20 ng/ml, serum-free medium (FIG. 12D)", "result": "significantly inhibited"}, {"measurement": "effect on BDNF-induced proliferation", "setting": "[2]; co-incubation with ANA-12 10 nM (FIG. 16C)", "result": "inhibited"}]}]}
